The source of these data is patent publication US20260234159A1, “SMALL MOLECULE TREATMENT OF FATTY LIVER DISEASE AND HCC” (SCANDIEDGE THERAPEUTICS AB, priority 2023, published 2026).

Molecules are shown by their SMILES.

Data set [1] deals with polychromatic erythrocytes. Kind of data set: Micronucleus frequencies (MNPCEs) as genotoxicity endpoint. The class given is in vivo, Sprague Dawley male rats. The conditions noted are these: 30 mg/kg, seven days. The procedure:
In addition to sampling for biochemical and haematological analysis, one drop of blood samples was obtained from the animals for evaluating micronucleus frequencies as genotoxicity endpoint at the end of the experiments. Three different smears of each rat were prepared using pre-coded and cold slides, then the slides air-dried at room temperature, and fixed in ethanol for 10 min, and stained with Giemsa. […] The incidence of MN-PCEs was determined by scoring a total of 3000 PCE per animal and results were expressed as % MN [12].

Another data set relates to PKL. Kind of data set: Western blot, PKL. Type of data set: cell-based, human. The conditions noted are these: 10 μM, 2 days. On the procedure: (§1) HepG2 cells were seeded into a 6-well plate at 400,000 cells per well. After treatment with 10 μM of JNK-IN-5A and its derivatives for two days, lysates were harvested with CelLytic M (C2978, Sigma-Aldrich). 20 μg lysate was prepared with 2× Laemmli Sample Buffer (1610737, Biorad). SDS PAGE were performed using Mini-PROTEAN® TGX™ Precast Gels (Bio-Rad) and transferred using Trans-Blot® Turbo™ Transfer System (Bio-Rad). Primary antibody, PARP (95425, Cell signalling), Caspase 3 (ab32042, abcam), Bcl-2 (ab182858), STAT1 (HPA000982, Merk), PKL (06653, Sigma), PKM (4053S, Cell signalling), GAPDH (ab8245, abcam), P53 (ab32389, abcam), p21 (ab109199, abcam), p-S349 p62 (ab211324, abcam), p62 (ab109012, abcam), c-Myc (ab32072, abcam), GPX4 (ab125066, abcam), MMP9 (MA5-32705, Invitrogen), β-actin (ab8227, abcam), and α-tubulin (ab7291, abcam) were blotted overnight and Goat Anti-Rabbit HRP (ab205718) and goat anti-mouse IgG-HRP (sc2005, Santa Cruz Biotechnology, Inc.) were blotted for secondary antibody for one hour. ImageQuantTMLAS 500 (29-0050-63, GE) was used to detect protein bands.

In data set [2] the test system is HepG2 cells. Kind of data set: Autophagy assay. The class given is cell-based, human. The conditions noted are these: 10 μM, one day. The procedure: (§2) HepG2 cells were seeded into a 6-well plate at 400,000 cells per well. After treatment with the compounds at desired concentration and time, TMRE (ab113852, abcam), Autophagy (ab139484, abcam), ROS (ab113851, abcam), and Lipid peroxidation (ab243377, abcam) assay were performed according to manufacturer's instructions. Fluorescence images were taken using ZOE™ Fluorescent Cell Imager (Biorad) and ROI of fluorescence intensity was measured and calculated by Image J. For microplate reader florescence assay, 40,000 of HepG2 cells were seeded into a 96-well plate and triplicated. GFP (Ex480 nm, Em530 nm) and RFP (Ex549 nm, Em574 nm) were measured using a microplate reader (Hidex Sense Meta Plus).

A further data set relates to p21. Kind of data set: Nuclear protein western blot, p21. The class given is cell-based, human. The conditions noted are these: 10 μM, 2 days. The procedure: as §1
For orientation: Immunoblotting shows a protein as a band on a membrane.

A short description of data set [3]: In vivo biosafety study in rats: histopathological and immunohistochemical examination. Also on record: species or system Sprague Dawley male rats. The conditions noted are these: 30 mg/kg, seven days. The procedure: In vivo biosafety studies. Healthy Sprague Dawley male rats (12 weeks old, 250-280 g) were obtained from Atatürk University Experimental Research Center ([…] Turkey) and housed under standard environmental conditions (temperature 20° C.-25° C., humidity 50±20% and 12-hour light/dark diurnal cycle). Food and water were available ad libitum. Rats were randomly separated into one control group and two experimental groups (30 mg/kg/day BX-912 or JNK-IN-5A, n=5). […] The control group were received the same amount of vehicle solution only. After 7 days, rats were anaesthetized, and blood samples were collected from the abdominal aorta for biochemical and haematological analysis. The plasma was separated and stored at -80° C. for further analysis. Major organs such as heart, kidney, liver, muscle, adipose, intestine (duodenum, ileum, jejunum), pancreas, colon, and stomach were collected from all the animals for further analysis. Selected organs were fixed in 10% neutral buffered formalin for histopathological examination. Histopathological examination. […] Immunohistochemical examination. […] Slides were counter stained with hematoxylin.

A further data set concerns p62 (SQSTM1). Kind of data set: Western blot, p62 and p-S349 p62. The class given is cell-based, human. The conditions noted are these: 10 μM, 2 days. The procedure:
as §1

Data set [4] concerns HepG2 cells. Kind of data set: MTT cell viability after one week steatosis (ranking of target molecules). The class given is cell-based, human. The procedure, abridged: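 HepG2 cells, 60,000 per well, kept one week in steatosis medium (high-glucose DMEM, 10 μg/ml insulin, 10 μM T0901317) with 10 μM compound. Medium changed at day 0, 3 and 5. Viability measured by MTT.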
For data set [5], the system named is HepG2 cells. In words: Lipid peroxidation assay. Type of data set: cell-based, human. The procedure:
as §2

Data set [6] deals with HepG2 cells. In words: Cellular ROS assay (DCFDA). The conditions noted are these: 10 μM, one day. The class given is cell-based, human. On the procedure:
as §2

For `N#Cc1c(NC(=O)c2cccc3ccccc23)sc2c1CCCC2` [JNK-IN-5A, N-(3-cyano-4,5,6,7-tetrahydrobenzo[b]thiophen-2-yl)-1-naphthamide], in data set [1], the genotoxic potential entry was “non-genotoxic”. For the same compound, the “frequencies of MNPCEs compared to Ctrl animals” value in data set [1] (p>0.05) is “not statistically different”. The PKL expression entry in the data set on PKL is on record as “notably decreased”. Also, the “autophagy GFP signals” value with HepG2 cells [2] is “significantly increased”. In the data set with p21, the p21 nuclear localization entry was “localized in the nucleus”. Moreover, in data set [3], the “histological structures of major organs” value is recorded as “normal histological structures” and the “side effects on the rats” value is reported as “no side effects”. Besides, the “8-OH-dG expression in liver tissues” value in data set [3] (IHC) is “negative”.

With `COc1ccc(C(=O)Nc2sc3c(c2C#N)CCCCC3)cc1OC` [PKL-A135, N-(3-cyano-5,6,7,8-tetrahydro-4H-cyclohepta[b]thiophen-2-yl)-3,4-dimethoxy-benzamide], the “levels of p62 and P-S349 p62” value with p62 (SQSTM1) is reported as “significantly elevated”.

In the case of `N#Cc1c(NC(=O)c2cccc3ccccc23)sc2c1CCN(C(=O)Nc1ccccc1OC(F)(F)F)C2` [PKL-A159], the “cell viability of HepG2” value with HepG2 cells [4] is listed as “exceptionally low cell viability”.

As for `N#Cc1c(NC(=O)c2cccc3ccccc23)sc2c1CCN(CC(=O)Nc1cccc(Br)c1)C2` [PKL-B171], the “GFP/RFP ratio (lipid peroxidation)” value with HepG2 cells [5] is on record as “statistically significant increase”. Moreover, in the data set on HepG2 cells [6], the “cellular ROS” value is “significantly increased”.
